In patent US9908886B2 (Agency for Science, Technology and Research, priority 2012, dated 2018):

Tests used:
[1] = biological target: MNK1 (Homo sapiens, UniProt Q9BUB5); test: In vitro MNK kinase assay (Caliper LabChip mobility shift); assay type: biochemical; conditions: enzymatic, 1.2 mM ATP; read-out: IC50 Mnk1
[2] = biological target: MNK2 (Homo sapiens (Human), UniProt Q9HBH9); test: as above; assay type: biochemical; conditions: enzymatic, 250 μM ATP; read-out: IC50 Mnk2
Sequence of MNK2 (Q9HBH9 84-388): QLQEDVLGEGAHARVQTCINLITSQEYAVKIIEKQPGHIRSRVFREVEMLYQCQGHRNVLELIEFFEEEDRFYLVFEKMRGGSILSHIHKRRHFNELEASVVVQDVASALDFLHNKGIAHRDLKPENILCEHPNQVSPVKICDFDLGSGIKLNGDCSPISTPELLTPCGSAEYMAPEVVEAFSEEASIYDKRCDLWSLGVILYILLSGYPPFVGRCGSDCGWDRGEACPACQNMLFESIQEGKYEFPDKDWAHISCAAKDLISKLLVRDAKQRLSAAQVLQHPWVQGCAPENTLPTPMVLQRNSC

| SMILES | IC50 [1] | IC50 [2] |
| --- | --- | --- |
| N#Cc1ccc(-c2cnc3ccc(-c4ccc(C(=O)N5CCC(CN)CC5)cc4)cn23)cc1 [Example 123, 4-(6-(4-(4-(aminomethyl)piperidine-1-carbonyl)phenyl)imidazo[1,2-a]pyridin-3-yl)benzonitrile] | < 100 nM | < 100 nM |
| COc1cc(-c2cn3c(-c4ccc(C#N)cc4)cnc3cn2)ccc1C(=O)N1CCN(C)CC1 [Example 39, 4-(6-(3-methoxy-4-(4-methylpiperazine-1-carbonyl)phenyl)imidazo[1,2-a]pyrazin-3-yl)benzonitrile] | < 1000 nM | < 1000 nM |
| N#Cc1ccc(-c2cnn3ccc(-c4ccc(C(=O)N5CCOCC5)cc4)nc23)cc1 [Example 185, 4-(5-(4-(morpholine-4-carbonyl)phenyl)pyrazolo[1,5-a]pyrimidin-3-yl)benzonitrile] | < 100 nM | < 100 nM |
| CC1(N)CCN(C(=O)c2ccc(-c3cn4c(-c5ccc(C#N)cc5)cnc4cn3)cc2F)CC1 [Example 30, 4-(6-(4-(4-amino-4-methylpiperidine-1-carbonyl)-3-fluorophenyl)imidazo[1,2-a]pyrazin-3-yl)benzonitrile] | < 1000 nM | < 1000 nM |
| N#Cc1ccc(-c2cnc3cnc(-c4ccc(C(=O)N5CCC(N)CC5)c(Cl)c4)cn23)cc1 [Example 31, 4-(6-(4-(4-aminopiperidine-1-carbonyl)-3-chlorophenyl)imidazo[1,2-a]pyrazin-3-yl)benzonitrile] | < 1000 nM | < 1000 nM |
| CN1CCN(C2CCN(C(=O)c3ccc(-c4ccc5ncc(-c6ccc(C#N)cc6)n5n4)cc3)CC2)CC1 [Example 70, 4-(6-(4-(4-(4-methylpiperazin-1-yl)piperidine-1-carbonyl)phenyl)imidazo[1,2-b]pyridazin-3-yl)benzonitrile] | < 100 nM | < 100 nM |
| N#Cc1ccc(-c2cnc3ccc(-c4ccc(C(=O)N5CCC(CCN)CC5)cc4)cn23)cc1 [Example 124, 4-(6-(4-(4-(2-aminoethyl)piperidine-1-carbonyl)phenyl)imidazo[1,2-a]pyridin-3-yl)benzonitrile] | < 100 nM | < 100 nM |
| CN(C)C1CCN(C(=O)c2ccc(-c3cn4c(-c5ccc(C#N)cc5)cnc4cn3)cc2)CC1 [Example 21, 4-(6-(4-(4-(dimethylamino)piperidine-1-carbonyl)phenyl)imidazo[1,2-a]pyrazin-3-yl)benzonitrile] | < 1000 nM | < 1000 nM |
| CN1CCN(C(=O)c2ccc(-c3ccc4ncc(-c5ccc(C#N)cc5)n4c3)cc2C(F)(F)F)CC1 [Example 145, 4-(6-(4-(4-methylpiperazine-1-carbonyl)-3-(trifluoromethyl)phenyl)imidazo[1,2-a]pyridin-3-yl)benzonitrile] | < 100 nM | < 1000 nM |
| N#Cc1ccc(-c2cnc3ccc(-c4ccc(C(=O)N5CCNC(=O)C5)cc4)cn23)cc1 [Example 102, 4-(6-(4-(3-oxopiperazine-1-carbonyl)phenyl)imidazo[1,2-a]pyridin-3-yl)benzonitrile] | < 100 nM | < 100 nM |
| CC(=O)N1CCCCC12CCN(C(=O)c1ccc(-c3ccc4ncc(-c5ccc(C#N)cc5)n4c3)cc1)CC2 [Example 118, 4-(6-(4-(1-acetyl-1,9-diazaspiro[5.5]undecane-9-carbonyl)phenyl)imidazo[1,2-a]pyridin-3-yl)benzonitrile] | < 100 nM | < 100 nM |
| Cc1cc(-c2ccc3ncc(-c4ccc(C#N)cc4)n3c2)ccc1C(=O)N1CCOCC1 [Example 156] | < 1000 nM | < 1000 nM |
| N#Cc1ccc(-c2cnc3ccc(-c4ccc(C(=O)N5CCNCC5)c(O)c4)cn23)cc1 [Example 159, 4-(6-(3-hydroxy-4-(piperazine-1-carbonyl)phenyl)imidazo[1,2-a]pyridin-3-yl)benzonitrile] | < 100 nM | < 100 nM |
| Cc1cc(-c2ccc3ncc(-c4ccc(C#N)cc4)n3n2)ccc1C(=O)N1CCN(C)CC1 [Example 74, 4-(6-(3-methyl-4-(4-methylpiperazine-1-carbonyl)phenyl)imidazo[1,2-b]pyridazin-3-yl)benzonitrile] | < 100 nM | < 100 nM |
| CN1CCN(C(=O)c2ccc(-c3cn4c(-c5ccc(Cl)cc5)cnc4cn3)cc2)CC1 [Example 41, (4-(3-(4-chlorophenyl)imidazo[1,2-a]pyrazin-6-yl)phenyl)(4-methylpiperazin-1-yl)methanone] | < 1000 nM | < 1000 nM |
| N#Cc1ccc(-c2cnc3ccc(-c4ccc(C(=O)N5CCCOCC5)cc4)nn23)cc1 [Example 64, 4-(6-(4-(1,4-oxazepane-4-carbonyl)phenyl)imidazo[1,2-b]pyridazin-3-yl)benzonitrile] | < 100 nM | < 100 nM |
| CC1(N)CCN(C(=O)c2ccc(-c3ccc4ncc(-c5ccc(C#N)cc5)n4n3)cc2)CC1 [Example 58, 4-(6-(4-(4-amino-4-methylpiperidine-1-carbonyl)phenyl)imidazo[1,2-b]pyridazin-3-yl)benzonitrile] | < 100 nM | < 100 nM |
| CN1CCN(C(=O)c2ccc(-c3ccc4ncc(-c5ccc(C#N)cc5)n4c3)cc2OC(F)(F)F)CC1 [Example 157] | < 1000 nM | < 1000 nM |
| COc1cc(-c2ccc3ncc(-c4ccc(C#N)cc4)n3c2)ccc1C(=O)N1CCOCC1 [Example 158] | < 1000 nM | < 100 nM |
| CN1CCN(C(=O)c2ccc(-c3ccc4ncc(-c5ccc(C#N)cc5)n4c3)cc2)CC1 [Example 95, 4-(6-(4-(4-Methylpiperazine-1-carbonyl)phenyl)imidazo[1,2-a]pyridin-3-yl)benzonitrile] | < 100 nM | < 100 nM |
| CNc1cc(-c2ccc3ncc(-c4ccc(C#N)cc4)n3c2)ccc1C(=O)N1CCOCC1 [Example 151, 4-(6-(3-(methylamino)-4-(morpholine-4-carbonyl)phenyl)imidazo[1,2-a]pyridin-3-yl)benzonitrile] | < 1000 nM | < 100 nM |
| O=C1CCN(C(=O)c2ccc(-c3cn4c(-c5ccc(Cl)cc5)cnc4cn3)cc2)CC1 [Example 43, 1-(4-(3-(4-chlorophenyl)imidazo[1,2-a]pyrazin-6-yl)benzoyl)piperidin-4-one] | < 1000 nM | < 1000 nM |
| O=C1Cc2cc(-c3cnc4ccc(-c5ccc(C(=O)N6CCC(N7CCOCC7)CC6)cc5)nn34)ccc2N1 [Example 94, 5-(6-(4-(4-morpholinopiperidine-1-carbonyl)phenyl)imidazo[1,2-b]pyridazin-3-yl)indolin-2-one] | < 100 nM | < 100 nM |
| N#Cc1ccc(-c2cnc3cnc(-c4ccc(C(=O)N5CCOCC5)cc4)cn23)cc1 [Example 7, 4-(6-(4-(morpholine-4-carbonyl)phenyl)imidazo[1,2-a]pyrazin-3-yl)benzonitrile] | < 1000 nM | < 1000 nM |
| N#Cc1ccc(-c2cnc3ccc(-c4ccc(C(=O)N5CCOCC5)c(N5CCOCC5)c4)cn23)cc1 [Example 160, 4-(6-[3-(morpholin-4-yl)-4-(morpholin-4-ylcarbonyl)phenyl]imidazo[1,2-a]pyridin-3-yl)benzonitrile] | < 100 nM | < 100 nM |
| CCN1CCN(C(=O)c2ccc(-c3cn4c(-c5ccc(Cl)cc5)cnc4cn3)cc2)CC1 [Example 45, (4-(3-(4-chlorophenyl)imidazo[1,2-a]pyrazin-6-yl)phenyl)(4-ethylpiperazin-1-yl)methanone] | < 1000 nM | < 1000 nM |
